In patent publication EP4772186A1, “USE AND COMPOSITION OF POSTBIOTIC OF LACTOBACILLUS PARACASEI ET-22” (Inner Mongolia Yili Industrial Group Co., Ltd., priority 2023, dated 2025):

System: indole, hexanoic acid, and propanoic acid
Test: SPME-GC-MS of characteristic flavor compounds
Format: cell-based, halitosis subjects (saliva)
Procedure: Fresh saliva was collected from 10 halitosis subjects (Halimeter index >120). Subjects were required not to consume any food or drink for 2 hours before donating saliva. Saliva was directly spat into a saliva collection tube, 5 ml per person, and mixed. The mixture was centrifuged at 4500 rpm for 10 minutes, and the supernatant was collected, aliquoted, and stored at -80°C for subsequent experimental studies.
(§1) Lysate group: In a headspace vial, 100 µl of saliva was added first, followed by separate addition of ET-22 viable bacteria (1.0×10^9 CFU/ml), ET-22 heat-inactivated bacterial cells (obtained by inactivating viable bacteria at 1.0×10^9 CFU/ml), and lysate (obtained by inactivating and then filtering viable bacteria at 1.0×10^9 CFU/ml), each at 100µl. Then, 800 µl of SHI medium was added. After filling with nitrogen, anaerobic cultivation was performed for 10 hours for loading on machine, and then SPME-GC-MS was used to test the change in content of volatile organic compound.
as §1, with “NAD group:” for “Lysate group:”, “by the” for “by”, “by heat-inactivating” for “by inactivating”, “and NAD (100 µg/ml),” for “and lysate (obtained by inactivating and then filtering viable bacteria at 1.0×10^9 CFU/ml),”, “machine,” for “machine, and”, “the changes” for “the change”
as §1, with “2-hydroxy-3-phenylpropionic acid group:” for “Lysate group:”, “by the” for “by”, “by heat-inactivating” for “by inactivating”, “and 2-hydroxy-3-phenylpropionic acid (100 µg/ml),” for “and lysate (obtained by inactivating and then filtering viable bacteria at 1.0×10^9 CFU/ml),”, “the changes” for “the change”
as §1, with “GP(HYP)GAG group:” for “Lysate group:”, “by the” for “by”, “by heat-inactivating” for “by inactivating”, “and GP(HYP)GAG (100 µg/ml),” for “and lysate (obtained by inactivating and then filtering viable bacteria at 1.0×10^9 CFU/ml),”, “the changes” for “the change”
Peptidoglycan group: In a headspace vial, 100 µl of saliva was added first, followed by separate addition of ET-22 viable bacteria (1.0×10^9 CFU/ml), ET-22 heat-inactivated bacterial cells (same as Example 1), and peptidoglycan (same as Example 1), each at 100µl. Then, 800 µl of SHI medium was added. After filling with nitrogen, anaerobic cultivation was performed for 10 hours for loading on machine, and then SPME-GC-MS was used to test the changes in content of volatile organic compound.
Helium was used as a carrier gas, with a rate remaining at 1.1 mL min-1. The injector temperature was set at 250°C. Oven temperature program was as follows: holding at 40°C for 1 min, then ramping to 120°C at a rate of 8°C/min, followed by increasing to 230°C at a rate of 5°C/min and holding for 10 minutes. The mass spectrometer was operated in electron ionization (EI) mode, with ion source temperature of 230°C, interface temperature of 200°C, and M/Z scan range of 30-400. To identify specific compounds, their mass spectra were compared with those of true compounds given in the NIST 17 database (V.05). The minimum matching quality for forward and reverse matches was 75/100. The flavor characteristic of each compound was determined based on data from the Good Scents Company Information System (http://www.thegoodscentscompany.com). […]

[1] = pure components 100 µg/ml, others from 1.0×10^9 CFU/ml, 10 hours
[2] = relative to ET-22 viable bacteria and heat-inactivated bacteria

O=C(O)C(O)Cc1ccccc1 (stereo not drawn) [2-hydroxy-3-phenylpropionic acid]
significantly decrease: hexanoic acid concentration [1] | indole concentration [1] | propanoic acid concentration [1]
better: intervention effect on hexanoic acid [2] | intervention effect on indole [2] | intervention effect on propanoic acid [2]
